Values quoted from earlier work in patent publication US20110123555A1, “PREPARATION AND UTILITY OF CCR5 INHIBITORS” (AUSPEX PHARMACEUTICALS, INC., priority 2006, published 2011).

System: 200 clinically-derived pseudoviruses
Conditions: half of which are derived from viruses resistant to existing drug classes

## Cc1nnc(C(C)C)n1C1CC2CCC(C1)N2CCC(NC(=O)C1CCC(F)(F)CC1)c1ccccc1 (stereo not shown) [Maraviroc]
  active in vitro against clinically-derived pseudoviruses: active
